Measured values from patent US20120329862A1, “NOVEL COMPOUND HAVING INHIBITORY EFFECT ON LIPASE” (SUNTORY HOLDINGS LIMITED, priority 2004, published 2012).

Key:
[1] = target: T1, porcine pancreatic lipase (Sus scrofa, UniProt P00591); assay: Lipase inhibitory activity measurement (4-UMO fluorescent substrate); type: biochemical; conditions: 4-UMO substrate, pH 8.0, 25° C., 30 minutes
T1 construct: purchased Sigma
T1 sequence (P00591 1-450): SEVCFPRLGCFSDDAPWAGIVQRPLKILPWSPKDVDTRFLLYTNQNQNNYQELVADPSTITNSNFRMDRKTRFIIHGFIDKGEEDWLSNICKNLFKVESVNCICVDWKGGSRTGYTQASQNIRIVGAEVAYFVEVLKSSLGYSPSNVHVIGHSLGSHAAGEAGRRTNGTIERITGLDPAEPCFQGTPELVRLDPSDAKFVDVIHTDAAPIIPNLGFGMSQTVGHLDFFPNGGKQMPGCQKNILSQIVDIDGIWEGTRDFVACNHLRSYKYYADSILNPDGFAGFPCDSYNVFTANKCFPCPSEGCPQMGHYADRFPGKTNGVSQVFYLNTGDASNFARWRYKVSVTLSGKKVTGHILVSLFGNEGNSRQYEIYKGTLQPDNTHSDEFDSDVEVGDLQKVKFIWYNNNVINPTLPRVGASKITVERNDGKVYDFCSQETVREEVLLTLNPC
Protocol: Lipase activity measurement was carried out by using oleic acid ester of fluorescent 4-methylumbelliferone (4-UMO) as a substrate, and measuring the fluorescence of 4-methylumbelliferone produced by reaction.
In the measurement, 13 mM Tris-HCl containing 150 mM NaCl and 1.36 mM CaCl2 was used as a buffer (pH 8.0). Substrate 4-UMO (Sigma) was prepared as 0.1M solution in DMSO and diluted 1000-fold with the buffer mentioned above. Similarly, lipase (porcine pancreatic lipase (Sigma)) was prepared as 400 U/ml solution in the buffer mentioned above and used in enzymatic measurement.
50 μl of the 4-UMO buffer solution and 25 μl of distilled water (or sample solution) were placed in a 96-well microplate and mixed at 25° C., followed by adding 25 μl of the lipase buffer solution to start enzyme reaction. After 30 minutes of reaction, 100 μl of 0.1M citric acid buffer (pH 4.2) was added to terminate the reaction, and the fluorescence of 4-methylumbelliferone (excitation wavelength: 355 nm, fluorescence wavelength: 460 nm) produced by the reaction was measured with a fluorescence plate reader (Labsystems, Fluoroskan Asent CF).
An inhibitory activity of the sample was determined as IC50, or the amount of the sample which gave […] of inhibition compared to the activity of control (distilled water).

[2] = Solubility of purified compound; type: physicochemical; conditions: purified white powder
Excerpt: The product obtained from oxidative polymerization reaction may be purified by conventional methods such as chromatography. […] Therefore, this compound is suitable for use in, for example, foods and/or beverages, and pharmaceutical drugs as an active lipase inhibitory ingredient for suppressing absorption of dietary lipids, thereby suppressing the rise of blood triglyceride or decreasing increased blood triglyceride.

Row | IC50 [1] [nM] | solubility [2] | Compound | lipase inhibitory activity IC50 [1] [µg/mL] | IC50 ([1]; value in brackets) [nM]
1 |  |  | epigallocatechin-3-O-gallate [EGCG, reference compound] | 0.16 | 349
2 | 67.8 | soluble in water, methanol and DMSO | O=C(O[C@@H]1Cc2c(O)cc(O)cc2O[C@@H]1C1=CC(=O)C2(O)Oc3c(O)c(O)cc([C@H]4Oc5cc(O)cc(O)c5C[C@H]4OC(=O)c4cc(O)c(O)c(O)c4)c3C12)c1cc(O)c(O)c(O)c1 (some centres unmarked) [OTNG, oolongtheanin-3′-O-gallate] |  | 68
